Experimental data reported in ChEMBL document CHEMBL1201862, “PubChem BioAssay data set” (2004).
Active and inactive are the calls of the source.

How the values were obtained:
Assay type in all cases: functional
[1] = target: T1, Orexin/Hypocretin receptor type 1 (Homo sapiens, UniProt O43613); assay: (§1) Fluorescence-based cell-based high throughput dose response assay for antagonists of the orexin 1 receptor (OX1R; HCRTR1). [Related pubchem assays (depositor defined):AID434989, AID435008, AID463079, AID485270, AID492963, AID492964, AID492965, AID493232, AID504717, AID504718]
T1 sequence (O43613 whole entry): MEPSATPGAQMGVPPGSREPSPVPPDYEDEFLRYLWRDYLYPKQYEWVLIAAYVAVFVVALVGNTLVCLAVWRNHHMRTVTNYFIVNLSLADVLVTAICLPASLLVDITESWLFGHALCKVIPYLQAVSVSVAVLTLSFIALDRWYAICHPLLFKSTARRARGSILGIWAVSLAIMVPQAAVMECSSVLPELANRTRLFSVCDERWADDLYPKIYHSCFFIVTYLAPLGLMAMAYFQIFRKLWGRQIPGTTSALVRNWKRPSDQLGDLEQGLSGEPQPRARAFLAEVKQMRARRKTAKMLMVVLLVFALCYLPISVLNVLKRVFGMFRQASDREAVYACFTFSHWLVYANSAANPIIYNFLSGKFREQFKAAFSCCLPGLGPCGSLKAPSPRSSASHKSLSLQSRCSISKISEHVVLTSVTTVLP

CHO-K1 = assay: (§2) Counterscreen for antagonists of the orexin 1 receptor (OX1R; HCRTR1): Homogeneous time resolved fluorescence (HTRF)-based cell-based dose response assay to identify antagonists of the parental CHO-K1 cell line. [Related pubchem assays (depositor defined):AID434989, AID435008, AID463079, AID485270, AID492963, AID492964, AID492965, AID493232, AID504699, AID504701]; conditions: Cricetulus griseus
[2] = as §2, with “Fluorescence-based” for “Homogeneous time resolved fluorescence (HTRF)-based”, “cell-based high throughput” for “cell-based”, “CHO” for “CHO-K1”
[3] = target: T2, Heat shock factor protein 1 (Mus musculus, UniProt P38532); assay: HSF1 potentiators in luciferase reporter cells, confirmation, cell-based, NIH3T3, luminescence, dose retest (AID 435004);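 note: stress induced by proteasome inhibitor MG132 added 30 min after compound; luciferase reporter driven by HSF1 response element in NIH3T3 cells; actives raise luminescence as potentiators of the MG132 stress response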
T2 sequence (P38532 whole entry): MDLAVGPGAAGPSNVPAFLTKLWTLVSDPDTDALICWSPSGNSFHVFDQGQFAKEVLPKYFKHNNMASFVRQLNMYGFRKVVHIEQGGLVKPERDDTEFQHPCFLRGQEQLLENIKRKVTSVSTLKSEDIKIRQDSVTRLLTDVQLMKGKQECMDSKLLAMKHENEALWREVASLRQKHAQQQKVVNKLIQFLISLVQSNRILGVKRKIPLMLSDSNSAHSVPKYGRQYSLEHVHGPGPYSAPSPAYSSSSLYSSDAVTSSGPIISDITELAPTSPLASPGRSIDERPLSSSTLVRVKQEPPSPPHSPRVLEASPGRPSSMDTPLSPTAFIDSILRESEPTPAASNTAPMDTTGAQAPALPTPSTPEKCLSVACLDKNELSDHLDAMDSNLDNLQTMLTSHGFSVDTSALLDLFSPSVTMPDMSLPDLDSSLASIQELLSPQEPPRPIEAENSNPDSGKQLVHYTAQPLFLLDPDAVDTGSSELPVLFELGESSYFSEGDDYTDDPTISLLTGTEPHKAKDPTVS

[4] = target: T1, Orexin/Hypocretin receptor type 1; assay: as §1, with “Homogeneous Time Resolved Fluorescence (HTRF)-based” for “Fluorescence-based”

OC(CN1c2ccccc2Sc2ccccc21)Cn1nnc2ccccc21 (stereo not given)
inactive: IC50 [1] 16.4 µM | IC50 (CHO-K1) > 66.2 µM | IC50 [2] 21.3 µM | EC50 [3] > 260 µM | IC50 [4] 13.3 µM
